Experimental data from patent publication US11807693B2 (priority 2014, dated 2023).
Where two headings read alike, the source gives them in different places. Starred links: 1 amine or outer side, 2 acyl side, 3 side chain; linkers in the order of their positions; H or OH if unused. Non-standard residues stand in square brackets, D forms with d. Residues, ends and D or L forms follow the SMILES beside them. *: point of attachment. dBip = N[C@H](Cc1ccc(-c2ccccc2)cc1)C(=O)O; Oic = O=C(O)[C@@H]1C[C@@H]2CCCC[C@@H]2N1; Phe(4-Cl) = N[C@@H](Cc1ccc(Cl)cc1)C(=O)O; dPhe(4-Cl) = N[C@H](Cc1ccc(Cl)cc1)C(=O)O; Phe(4-I) = N[C@@H](Cc1ccc(I)cc1)C(=O)O; γGlu = O=C(O)[C@H](CCC(=O)[*:2])N[*:1]; 1Nal = N[C@@H](Cc1cccc2ccccc12)C(=O)O; HOOC(CH2)8CO = O=C(O)CCCCCCCCC(=O)*; NMeR = CN[C@@H](CCCNC(=N)N)C(=O)O; Palmitoyl = CCCCCCCCCCCCCCCC(=O)*; Tridecanoyl = CCCCCCCCCCCCC(=O)*; hArg = N=C(N)NCCCC[C@H](N)C(=O)O; dTic = O=C(O)[C@H]1Cc2ccccc2CN1; Cha = N[C@@H](CC1CCCCC1)C(=O)O; NMeL = CN[C@@H](CC(C)C)C(=O)O; αMeL = CC(C)C[C@](C)(N)C(=O)O; Tle = CC(C)(C)[C@H](N)C(=O)O; β3hP = O=C(O)C[C@@H]1CCCN1; Pip = O=C(O)[C@@H]1CCCCN1; Nle = CCCC[C@H](N)C(=O)O; Orn = NCCC[C@H](N)C(=O)O; Deg = CCC(N)(CC)C(=O)O; AEEA = NCCOCCOCC(=O)O

How the values were obtained:
[1] = biological target: T1, human APJ receptor (Homo sapiens, UniProt P35414); assay: [35S] GTPγS assay, human APJ receptor; assay type: biochemical
T1 construct: expressed in transfected cells
T1 sequence (P35414 1-380): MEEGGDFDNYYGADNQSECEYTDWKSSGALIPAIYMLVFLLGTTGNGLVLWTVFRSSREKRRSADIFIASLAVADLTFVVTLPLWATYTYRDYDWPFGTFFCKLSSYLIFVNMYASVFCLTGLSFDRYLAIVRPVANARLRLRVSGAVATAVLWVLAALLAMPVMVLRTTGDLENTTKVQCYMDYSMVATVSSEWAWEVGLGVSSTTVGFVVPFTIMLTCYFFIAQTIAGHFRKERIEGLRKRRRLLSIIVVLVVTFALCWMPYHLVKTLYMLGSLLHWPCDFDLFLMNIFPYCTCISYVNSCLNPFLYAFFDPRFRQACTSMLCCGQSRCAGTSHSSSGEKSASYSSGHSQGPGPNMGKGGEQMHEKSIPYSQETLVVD
Procedure: The membranes were incubated with modified peptides in the assay buffer. […] Bound [^35S] GTPγS was separated from free radiolabel by filtration. The filter bound radioactivity was determined by liquid scintillation counting.

[2] = In vitro stability in rat plasma; assay type: in vitro ADME
In short: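 Peptide 5 μM final; rat plasma / liver homog. / kidney homog.; 37° C., 4 hr. Quench MeOH + IS, vortex 15 min RT, spin 5500 g 15 min; supernatant by HR LC-MS.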

SMILES	EC50 ([1]; Table 16) [nM]	EC50 ([1]; human APJ receptor) [nM]	other results
CCCCCCCCCCCCC(=O)N[C@@H](CCC(=O)NCCOCCOCC(=O)NCCOCCOCC(=O)N[C@@H](CCC(N)=O)C(=O)N[C@@H](CCCNC(=N)N)C(=O)N1CCC[C@H]1C(=O)N(C)[C@@H](CCCNC(=N)N)C(=O)N[C@@H](CC1CCCCC1)C(=O)N[C@@H](CO)C(=O)N[C@@H](Cc1c[nH]cn1)C(=O)N[C@@H](CCCCN)C(=O)NCC(=O)N1CCCC[C@H]1C(=O)N[C@@H](CCCC)C(=O)N1CCC[C@H]1C(=O)N[C@@H](Cc1ccc(Cl)cc1)C(=O)O)C(=O)O [compound 416] ({Tridecanoyl-γGlu-AEEA-AEEA}-QRP[NMeR][Cha]SHKG[Pip][Nle]P[Phe(4-Cl)]-OH)	0.192	–	remaining at 4 h, 5 μM [2]: 57.7%
CCCCCCCCCCCCC(=O)N[C@@H](CCC(=O)NCCOCCOCC(=O)NCCOCCOCC(=O)N[C@@H](CCC(N)=O)C(=O)N[C@@H](CCCNC(=N)N)C(=O)N1CCC[C@H]1C(=O)N(C)[C@@H](CCCNC(=N)N)C(=O)N[C@@H](CC1CCCCC1)C(=O)N[C@@H](CO)C(=O)N[C@@H](C)C(=O)N[C@@H](CCCCN)C(=O)NCC(=O)N1[C@H](C(=O)N[C@@H](CCCC)C(=O)N2CCC[C@H]2C(=O)N[C@@H](Cc2ccc(Cl)cc2)C(=O)O)C[C@@H]2CCCC[C@@H]21)C(=O)O [compound 419] ({Tridecanoyl-γGlu-AEEA-AEEA}-QRP[NMeR][Cha]SAKG[Oic][Nle]P[Phe(4-Cl)]-OH)	0.484	–	–
CCCC[C@H](NC(=O)[C@@H]1C[C@@H]2CCCC[C@@H]2N1C(=O)CNC(=O)[C@H](CCCCN)NC(=O)[C@H](Cc1c[nH]cn1)NC(=O)[C@H](CO)NC(=O)[C@H](CC1CCCCC1)NC(=O)[C@H](CCCNC(=N)N)N(C)C(=O)[C@@H]1CCCN1C(=O)[C@H](CCCCNC(=N)N)NC(=O)[C@H](CCC(N)=O)NC(=O)[C@H](CCCCNC(=N)N)NC(=O)[C@H](CCCCNC(=N)N)NC(C)=O)C(=O)N1CCC[C@H]1C(=O)N[C@@H](Cc1ccc(Cl)cc1)C(=O)O [compound 56] (Ac-[hArg][hArg]Q[hArg]P[NMeR][Cha]SHKG[Oic][Nle]P[Phe(4-Cl)]-OH)	–	–	EC50 [1]: 0.176 nM
CCCCCCCCCCCCCCCC(=O)N[C@@H](CCC(=O)NCCOCCOCC(=O)NCCOCCOCC(=O)N[C@H](CCC(N)=O)C(=O)N[C@@H](CCCNC(=N)N)C(=O)N1CCC[C@H]1C(=O)N(C)[C@@H](CCCNC(=N)N)C(=O)N[C@@](C)(CC(C)C)C(=O)N[C@@H](CO)C(=O)N[C@@H](Cc1c[nH]cn1)C(=O)N[C@@H](CCCN)C(=O)NCC(=O)N1[C@H](C(=O)N[C@@H](CCCC)C(=O)N2CCC[C@H]2CC(=O)N[C@@H](Cc2ccc(Cl)cc2)C(=O)O)C[C@@H]2CCCC[C@@H]21)C(=O)O [compound 634] ({Palmitoyl-γGlu-AEEA-AEEA}-[dQ]RP[NMeR][αMeL]SH[Orn]G[Oic][Nle][β3hP][Phe(4-Cl)]-OH)	–	0.165	–
CC(C)C[C@@H](C(=O)N[C@@H](CO)C(=O)N[C@@H](Cc1c[nH]cn1)C(=O)N[C@@H](CCCCN)C(=O)NCC(=O)N1[C@H](C(=O)N[C@@H](Cc2ccc(I)cc2)C(=O)N2CCC[C@H]2C(=O)N[C@H](Cc2ccc(-c3ccccc3)cc2)C(=O)O)C[C@@H]2CCCC[C@@H]21)N(C)C(=O)[C@@H](CCCNC(=N)N)NC(=O)[C@@H]1CCCN1C(=O)[C@H](CCCCNC(=N)N)NC(=O)[C@H](CCC(N)=O)NC(=O)COCCOCCNC(=O)COCCOCCNC(=O)CC[C@H](NC(=O)CCCCCCCCC(=O)O)C(=O)O [compound 288] ({HOOC(CH2)8CO-γGlu-AEEA-AEEA}-Q[hArg]P[dR][NMeL]SHKG[Oic][Phe(4-I)]P[dBip]-OH)	–	38.5	–
CCCCCCCCCCCCCCCC(=O)N[C@@H](CCC(=O)NCCOCCOCC(=O)NCCOCCOCC(=O)N[C@H](CCC(N)=O)C(=O)N[C@@H](CCCNC(=N)N)C(=O)N1CCC[C@H]1C(=O)N(C)[C@@H](CCCNC(=N)N)C(=O)N[C@@H](CC1CCCCC1)C(=O)N[C@@H](CO)C(=O)N[C@@H](Cc1c[nH]cn1)C(=O)N[C@@H](CCCCN)C(=O)NCC(=O)N1CCC[C@H]1CC(=O)N[C@@H](CCCC)C(=O)N[C@@H](Cc1ccc(Cl)cc1)C(=O)O)C(=O)O [compound 613] ({Palmitoyl-γGlu-AEEA-AEEA}-[dQ]RP[NMeR][Cha]SHKG[β3hP][Nle][Phe(4-Cl)]-OH)	–	1.66	–
CCCCCCCCCCCCC(=O)N[C@@H](CCC(=O)NCCOCCOCC(=O)NCCOCCOCC(=O)N[C@@H](CCC(N)=O)C(=O)N[C@@H](CCCNC(=N)N)C(=O)N1CCC[C@H]1C(=O)N(C)[C@@H](CCCNC(=N)N)C(=O)N[C@@H](CC1CCCCC1)C(=O)N[C@@H](CO)C(=O)N[C@H](C(=O)N[C@@H](CCCCN)C(=O)NCC(=O)N1[C@H](C(=O)N[C@@H](CCCC)C(=O)N2CCC[C@H]2C(=O)N[C@@H](Cc2ccc(Cl)cc2)C(=O)O)C[C@@H]2CCCC[C@@H]21)C(C)(C)C)C(=O)O [compound 438] ({Tridecanoyl-γGlu-AEEA-AEEA}-QRP[NMeR][Cha]S[Tle]KG[Oic][Nle]P[Phe(4-Cl)]-OH)	1.49	–	–
CCCCCCCCCCCCCCCC(=O)N[C@@H](CCC(=O)NCCOCCOCC(=O)NCCOCCOCC(=O)N[C@H](CCC(N)=O)C(=O)N[C@@H](CCCNC(=N)N)C(=O)N1CCC[C@H]1C(=O)N(C)[C@@H](CCCNC(=N)N)C(=O)N[C@@H](CC1CCCCC1)C(=O)N[C@@H](CO)C(=O)N[C@@H](Cc1c[nH]cn1)C(=O)N[C@@H](CCCCN)C(=O)NCC(=O)N1CCCC[C@H]1C(=O)N[C@@H](CCCC)C(=O)N1CCCC(C(=O)N[C@@H](Cc2ccc(Cl)cc2)C(=O)O)C1)C(=O)O (single isomer, unassigned) [compound 588]	–	1.52	remaining at 4 h, 5 μM [2]: > 90%
CCCCCCCCCCCCC(=O)N[C@@H](CCC(=O)NCCOCCOCC(=O)NCCOCCOCC(=O)N[C@H](CCC(N)=O)C(=O)N[C@@H](CCCNC(=N)N)C(=O)N1CCC[C@H]1C(=O)N(C)[C@@H](CCCNC(=N)N)C(=O)N[C@@H](CC1CCCCC1)C(=O)N[C@@H](CO)C(=O)N[C@@H](Cc1c[nH]cn1)C(=O)N[C@@H](CCCCN)C(=O)NCC(=O)N1[C@H](C(=O)N[C@@H](CCCC)C(=O)NC(CC)(CC)C(=O)N[C@@H](Cc2ccc(Cl)cc2)C(=O)O)C[C@@H]2CCCC[C@@H]21)C(=O)O [compound 549] ({Tridecanoyl-γGlu-AEEA-AEEA}-[dQ]RP[NMeR][Cha]SHKG[Oic][Nle][Deg][Phe(4-Cl)]-OH)	1.2	–	–
CCCCCCCCCCCCC(=O)N[C@@H](CCC(=O)NCCOCCOCC(=O)NCCOCCOCC(=O)N[C@@H](CCC(N)=O)C(=O)N[C@@H](CCCNC(=N)N)C(=O)N1CCC[C@H]1CC(=O)N(C)[C@@H](CCCNC(=N)N)C(=O)N[C@@H](CC1CCCCC1)C(=O)N[C@@H](CO)C(=O)N[C@@H](Cc1c[nH]cn1)C(=O)N[C@@H](CCCCN)C(=O)NCC(=O)N1[C@H](C(=O)N[C@@H](CCCC)C(=O)N2CCC[C@H]2C(=O)N[C@@H](Cc2ccc(Cl)cc2)C(=O)O)C[C@@H]2CCCC[C@@H]21)C(=O)O [compound 441] ({Tridecanoyl-γGlu-AEEA-AEEA}-QR[β3hP][NMeR][Cha]SHKG[Oic][Nle]P[Phe(4-Cl)]-OH)	1.9	–	–
CC(=O)N[C@@H](CCCCNC(=N)N)C(=O)N[C@@H](CCCCNC(=N)N)C(=O)N[C@@H](CCC(N)=O)C(=O)N[C@H](CCCNC(=N)N)C(=O)N1CCC[C@H]1C(=O)N(C)[C@@H](CCCNC(=N)N)C(=O)N[C@@H](CC1CCCCC1)C(=O)N[C@@H](CO)C(=O)N[C@@H](Cc1c[nH]cn1)C(=O)N[C@@H](CCCCN)C(=O)NCC(=O)N1[C@H](C(=O)N[C@@H](Cc2ccc(I)cc2)C(=O)N2CCC[C@H]2C(=O)N[C@H](Cc2ccc(-c3ccccc3)cc2)C(=O)O)C[C@@H]2CCCC[C@@H]21 [compound 22] (Ac-[hArg][hArg]Q[dR]P[NMeR][Cha]SHKG[Oic][Phe(4-I)]P[dBip]-OH)	–	–	EC50 [1]: 1.52 nM
CCCCCCCCCCCCC(=O)N[C@@H](CCC(=O)NCCOCCOCC(=O)NCCOCCOCC(=O)N[C@H](CCC(N)=O)C(=O)N[C@@H](CCCCNC(=N)N)C(=O)N1CCC[C@H]1C(=O)N[C@H](CCCNC(=N)N)C(=O)N[C@@H](CC1CCCCC1)C(=O)N[C@@H](CO)C(=O)N[C@@H](Cc1c[nH]cn1)C(=O)N[C@@H](CCCCN)C(=O)NCC(=O)N1[C@H](C(=O)N[C@@H](CCCC)C(=O)N2CCC[C@H]2C(=O)N[C@@H](Cc2cccc3ccccc23)C(=O)O)C[C@@H]2CCCC[C@@H]21)C(=O)O [compound 367] ({Tridecanoyl-γGlu-AEEA-AEEA}-[dQ][hArg]P[dR][Cha]SHKG[Oic][Nle]P[1Nal]-OH)	26.4	–	–
CCCCCCCCCCCCC(=O)N[C@@H](CCC(=O)NCCOCCOCC(=O)NCCOCCOCC(=O)N[C@@H](CCC(N)=O)C(=O)N[C@@H](CCCNC(=N)N)C(=O)N1CCC[C@H]1C(=O)N(C)[C@@H](CCCNC(=N)N)C(=O)N[C@@H](CC1CCCCC1)C(=O)N[C@@H](CO)C(=O)N[C@@H](Cc1c[nH]cn1)C(=O)N[C@@H](CCCCN)C(=O)NCC(=O)N1[C@H](C(=O)N[C@@H](CCCC)C(=O)N2CCC[C@H]2C(=O)N[C@H](Cc2ccc(Cl)cc2)C(=O)O)C[C@@H]2CCCC[C@@H]21)C(=O)O [compound 381] ({Tridecanoyl-γGlu-AEEA-AEEA}-QRP[NMeR][Cha]SHKG[Oic][Nle]P[dPhe(4-Cl)]-OH)	6.11	–	–
CCCCCCCCCCCCCCCC(=O)N[C@@H](CCC(=O)NCCOCCOCC(=O)NCCOCCOCC(=O)N[C@H](CCC(N)=O)C(=O)N[C@@H](CCCNC(=N)N)C(=O)N1CCC[C@H]1C(=O)N(C)[C@@H](CCCNC(=N)N)C(=O)N[C@@H](CC1CCCCC1)C(=O)N[C@@H](CO)C(=O)N[C@@H](Cc1c[nH]cn1)C(=O)N[C@@H](CCCCN)C(=O)NCC(=O)N1CCCC[C@H]1C(=O)N[C@@H](CCCC)C(=O)N1CCC[C@H]1C(=O)N1Cc2ccccc2C[C@@H]1C(=O)O)C(=O)O [compound 599] ({Palmitoyl-γGlu-AEEA-AEEA}-[dQ]RP[NMeR][Cha]SHKG[Pip][Nle]P[dTic]-OH)	–	0.44	–
